For assay [1], the target named is T1, KRas G12D (Homo sapiens, UniProt P01116, G12D). Nature of the assay: KRas G12D Surface Plasmon Resonance (SPR) Binding Assay. The following applies: Biacore T200, biotinylated Avidin-tagged KRAS protein on SA chip, 20 C, 1:1 binding model. A digest of the protocol:
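Biotinylated Avi-tagged KRAS G12D was captured on a streptavidin chip; compounds were injected as 3-fold dilution series in HBS-Mg buffer, pH 7.5, with DMSO at 20 C (60 s contact, 120 s dissociation). Binding constants came from 1:1 model fits.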
Background: In SPR one partner is held on a chip, and binding of the other changes the refractive index at the surface.
Target sequence in this assay (P01116 1-188 isoform P01116-2 G12D): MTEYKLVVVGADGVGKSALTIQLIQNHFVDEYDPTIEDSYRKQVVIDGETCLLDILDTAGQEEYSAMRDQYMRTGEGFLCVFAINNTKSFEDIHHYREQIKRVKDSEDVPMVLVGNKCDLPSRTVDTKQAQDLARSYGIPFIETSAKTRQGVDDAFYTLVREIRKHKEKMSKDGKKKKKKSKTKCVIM

Assay [2] concerns KRas G12D-mediated Phosphorylation of ERK. The assay is described as follows: Inhibition of KRas G12D-mediated Phosphorylation of ERK in AGS cells. It is filed as cell-based. The following applies: Homo sapiens; AGS cells expressing G12D, 3 hours, phospho-ERK normalized to GAPDH. Put shortly: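 AGS cells (endogenous KRas G12D) were treated with compounds for 3 h in 0.5% DMSO, then fixed, permeabilized and immunostained. The phospho-ERK (Thr202/Tyr204) signal was normalized to GAPDH in-cell by infrared detection and expressed as % of DMSO control. IC50 came from a 4-parameter fit.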

The target in assay [3] is T1, KRas G12D. Nature of the assay: KRas G12D Binding Assay (TR-FRET displacement of labeled tracer). Also on record: corresponding to amino acids 1:169, produced at Array BioPharma; biotin (protein is biotinylated). The note with it: TR-FRET displacement of Cy5 labelled tracer, biotinylated GDP-loaded KRAS G12D (aa 1:169), 60 minute incubation at 22° C. A digest of the protocol:
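Biotinylated GDP-loaded human KRAS G12D (aa 1–169) incubated with Cy5 tracer, Eu-streptavidin and compound (2% DMSO final) in 50 mM HEPES pH 7.5, 5 mM MgCl2, 0.005% Tween-20, 1 mM DTT, 60 min at 22 °C. TR-FRET ratio converted to percent of control; IC50 at 50 POC from 4-parameter logistic fit.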
Target sequence in this assay (P01116 1-169 isoform P01116-2 G12D): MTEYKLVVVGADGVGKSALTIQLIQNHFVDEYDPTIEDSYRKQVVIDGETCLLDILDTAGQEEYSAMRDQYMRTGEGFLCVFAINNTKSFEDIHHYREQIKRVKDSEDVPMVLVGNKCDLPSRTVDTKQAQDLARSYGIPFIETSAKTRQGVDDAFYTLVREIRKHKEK
On the technique in general: In TR-FRET formats the signal depends on donor and acceptor labels being close together.

SMILES strings stand for the structures. A value given as a limit tells only on which side of the number the result lay.

By Kd is commonly meant the equilibrium constant for the complex coming apart. Usually IC50 stands for the concentration that gives 50% inhibition. For `CN1CCC[C@H]1COc1nc2c(c(N3C[C@H]4CC[C@@H](C3)N4)n1)CCN(c1c(F)ccc(F)c1C(F)F)C2` [Example 76, 4-((1R,5S)-3,8-diazabicyclo[3.2.1]octan-3-yl)-7-(2-(difluoromethyl)-3,6-difluorophenyl)-2-(((S)-1-methylpyrrolidin-2-yl)methoxy)-5,6,7,8-tetrahydropyrido[3,4-d]pyrimidine], binding in assay [1] was put at a Kd of 97000 nM. For the same compound, the half-inhibitory concentration (IC50) in assay [2] is above 16700 nM; in assay [3] it was above 10000 nM.

As for `Cc1cccc(N2CCc3c(nc(OCC45CCCN4CCC5)nc3N3C[C@H]4CC[C@@H](C3)N4)C2)c1C(F)(F)F` [Example 64, 4-((1R,5S)-3,8-diazabicyclo[3.2.1]octan-3-yl)-7-(3-methyl-2-(trifluoromethyl)phenyl)-2-((tetrahydro-1H-pyrrolizin-7a(5H)-yl)methoxy)-5,6,7,8-tetrahydropyrido[3,4-d]pyrimidine], the dissociation constant Kd in assay [1] is 67.3 nM. In addition, the IC50 in assay [2] was above 16700 nM; in assay [3] it was 13 nM.

`Cc1cccc2cccc(N3CCc4c(nc(OC[C@@H]5CCCN5C)nc4N4C[C@H]5CC[C@@H](C4)N5)C3)c12` [Example 52, 4-((1R,5S)-3,8-diazabicyclo[3.2.1]octan-3-yl)-7-(8-methylnaphthalen-1-yl)-2-(((S)-1-methylpyrrolidin-2-yl)methoxy)-5,6,7,8-tetrahydropyrido[3,4-d]pyrimidine] registered a dissociation constant Kd in assay [1] of 250000 nM. The half-maximal inhibitory concentration (IC50) in assay [2] amounted to 14900 nM; in assay [3], 361 nM.

Regarding `O[C@@H]1C[C@@H]2CN(c3nc(OCC45CCCN4CC(F)C5)nc4c3CCN(c3cccc5cccc(Cl)c35)C4)C[C@H]1N2` (mixture of isomers) [Example 45, (1R,5R,6R)-3-(7-(8-chloronaphthalen-1-yl)-2-((2-fluorotetrahydro-1H-pyrrolizin-7a(5H)-yl)methoxy)-5,6,7,8-tetrahydropyrido[3,4-d]pyrimidin-4-yl)-3,8-diazabicyclo[3.2.1]octan-6-ol], in assay [1], the affinity, expressed as Kd, was 1.9 nM. Further, the IC50 was determined as 1360 nM in assay [2] and 2.6 nM in assay [3].

`CN1CCC[C@H]1COc1nc2c(c(N3C[C@H]4CC[C@@H](C3)N4)n1)CCN(c1cc(O)c(Br)c3ccccc13)C2` [Example 109, 4-(4-((1R,5S)-3,8-diazabicyclo[3.2.1]octan-3-yl)-2-(((S)-1-methylpyrrolidin-2-yl)methoxy)-5,8-dihydropyrido[3,4-d]pyrimidin-7(6H)-yl)-1-bromonaphthalen-2-ol]: the Kd in assay [1] came out at 20.8 nM. Also, the IC50 was determined as 663 nM in assay [2] and 5.5 nM in assay [3].

Turning to `CN1CCC[C@H]1COc1nc2c(c(N3CC4CC(F)C(C3)N4)n1)CCN(c1cc(O)cc3ccccc13)C2` (stereo partly drawn) [Example 38, 4-(4-(6-fluoro-3,8-diazabicyclo[3.2.1]octan-3-yl)-2-(((S)-1-methylpyrrolidin-2-yl)methoxy)-5,8-dihydropyrido[3,4-d]pyrimidin-7(6H)-yl)naphthalen-2-ol], the dissociation constant (Kd) in assay [1] is 2340 nM. Further, the half-maximal inhibitory concentration (IC50) in assay [2] is 5000 nM; in assay [3], 73.5 nM.

In turn, `CN1CCC[C@H]1COc1nc2c(c(N3C[C@H]4CC[C@@H](C3)N4)n1)CCN(c1c(F)cccc1C(F)(F)F)C2` [Example 75, 4-((1R,5S)-3,8-diazabicyclo[3.2.1]octan-3-yl)-7-(2-fluoro-6-(trifluoromethyl)phenyl)-2-(((S)-1-methylpyrrolidin-2-yl)methoxy)-5,6,7,8-tetrahydropyrido[3,4-d]pyrimidine] had a Kd in assay [1] of 170000 nM. Further, the IC50 in assay [2] is above 16700 nM; in assay [3] it was above 10000 nM.

(Values after US12686692B2, “KRas G12D inhibitors” (Mirati Therapeutics, Inc., priority 2020, dated 2026).)
